Entries after “also recorded” stand apart in the source; their conditions may differ. Positions of bridges follow the written chain, without caps; N, C: chain ends. Residues, ends and D or L forms follow the SMILES beside them. No end group written: not given here.
How the values were obtained:
[1] = test system: nasal cavity, the affected site; assay: Effect on nose of cyclic peptides in which amino acid was substituted; details: nasal application once/day
Protocol: The obtained cyclic peptide was combined with purified water at 1, 5, 30, 100, 500 μg/ml and applied to the affected site. Formulations A to E in the tables refers to the cyclic peptide of 1, 5, 30, 100, 500 μg/ml, respectively.

[2] = test system: affected site of skin; assay: Effect on skin of cyclic peptides in which amino acid was substituted; assay type: in vivo, human
Protocol: Formulations A to E refers to cyclic peptide concentration of 1, 5, 30, 100, 500 μg/ml, respectively.

[3] = rough skin, Formulation C (30 μg/ml)
[4] = atopic dermatitis, Formulation B (5 μg/ml in purified water) applied to affected site
[5] = psoriasis vulgaris, Formulation C (30 μg/ml)
[6] = atopic dermatitis, Formulation C (30 μg/ml in purified water) applied to affected site
[7] = rough skin, Formulation A (1 μg/ml)

CC[C@H](C)[C@@H]1NC(=O)[C@H](CCCNC(=N)N)NC(=O)[C@H](CC(=O)O)NC(=O)[C@H](CC(C)C)NC(=O)[C@H](CCCCN)NC(=O)[C@H](CC(C)C)NC(=O)CNC(=O)[C@H](Cc2ccccc2)NC(=O)[C@@H](N)CSSC[C@@H](C(=O)O)NC(=O)CNC(=O)[C@H](CCSC)NC(=O)CNC(=O)[C@H](CO)NC(=O)[C@H](CCSC)NC(=O)[C@H](CO)NC(=O)CNC1=O [SEQ ID NO: 20] (H-CFGLKLDRIGSMSGMGC-OH; disulfide 1-17; N-terminus and C-terminus assumed) was tested, and the “irritation upon nasal application” value ([1]; Formulation C = 30 μg/ml) was “There was no irritation upon nasal application”.
With CC[C@H](C)[C@@H]1NC(=O)CNC(=O)[C@H](CO)NC(=O)[C@H](CCSC)NC(=O)[C@H]([C@@H](C)O)NC(=O)CNC(=O)[C@H]([C@@H](C)CC)NC(=O)[C@H](CCCNC(=N)N)NC(=O)[C@H](CC(=O)O)NC(=O)[C@H](CCSC)NC(=O)[C@H](CCCCN)NC(=O)[C@H](CC(C)C)NC(=O)[C@H](C)NC(=O)[C@H](Cc2ccccc2)NC(=O)[C@@H](N)CSSC[C@@H](C(=O)O)NC(=O)CNC1=O [SEQ ID NO: 58] (H-CFALKMDRIGTMSGIGC-OH; disulfide 1-17; N-terminus and C-terminus assumed) the “irritation upon nasal application” value ([1]; Formulation B = 5 μg/ml) was “There was no irritation upon nasal application”.
For CC[C@H](C)[C@@H]1NC(=O)CNC(=O)[C@H](CO)NC(=O)[C@H](CCSC)NC(=O)[C@H](CO)NC(=O)CNC(=O)[C@H]([C@@H](C)CC)NC(=O)[C@H](CCCNC(=N)N)NC(=O)[C@H](CC(=O)O)NC(=O)[C@H](CCSC)NC(=O)[C@H](CCCCN)NC(=O)[C@H](CC(C)C)NC(=O)[C@H](C)NC(=O)[C@H](Cc2ccccc2)NC(=O)[C@@H](N)CSSC[C@@H](C(=O)O)NC(=O)CNC1=O [SEQ ID NO: 50] (H-CFALKMDRIGSMSGIGC-OH; disulfide 1-17; N-terminus and C-terminus assumed), the “irritation upon nasal application” value ([1]; Formulation C = 30 μg/ml) was “stopped. There was no irritation upon nasal application”.
For “SEQ ID NO: 6: cyclic peptide in which one amino acid has been substituted (CFALKLDRIGSMSGLGC; disulfide 1-17)”, the “Post-treatment diagnostic skin impression” value ([2]; eczema, large winkles, Formulation B (5 μg/ml)) was “Immediately after application, itches were eliminated” and the “Post-treatment diagnostic skin impression” value [2, 3] was “texture was improved. After 2 min, wrinkles were shallowed,; also recorded: skin was full and given resilience; also recorded: Immediately after application, itches were eliminated, skin”.
With “SEQ ID NO: 14: cyclic peptide in which one amino acid has been substituted (CFGLKLDRIGLMSGLGC; disulfide 1-17)” the “Post-treatment diagnostic skin impression” value [2, 4] was “After 1 min, itches, scales, erythema” and the “Post-treatment diagnostic skin impression” value [2, 5] was “After 3 min, scales, crusts and infiltration were remitted”.
For CC[C@H](C)[C@@H]1NC(=O)CNC(=O)[C@H](CO)NC(=O)[C@H](CCSC)NC(=O)[C@H]([C@@H](C)O)NC(=O)CNC(=O)[C@H]([C@@H](C)CC)NC(=O)[C@H](CCCNC(=N)N)NC(=O)[C@H](CC(=O)O)NC(=O)[C@H](CCSC)NC(=O)[C@H](CCCCN)NC(=O)[C@H](CC(C)C)NC(=O)CNC(=O)[C@H](Cc2ccccc2)NC(=O)[C@@H](N)CSSC[C@@H](C(=O)O)NC(=O)CNC1=O [SEQ ID NO: 52] (H-CFGLKMDRIGTMSGIGC-OH; disulfide 1-17; N-terminus and C-terminus assumed), the “irritation upon nasal application” value ([1]; Formulation C = 30 μg/ml) was “clear. There was no irritation upon nasal application”.
CC[C@H](C)[C@@H]1NC(=O)[C@H](CCCNC(=N)N)NC(=O)[C@H](CC(=O)O)NC(=O)[C@H](CCSC)NC(=O)[C@H](CCCCN)NC(=O)[C@H](CC(C)C)NC(=O)[C@H](C)NC(=O)[C@H](Cc2ccccc2)NC(=O)[C@@H](N)CSSC[C@@H](C(=O)O)NC(=O)CNC(=O)[C@H](CC(C)C)NC(=O)CNC(=O)[C@H](CO)NC(=O)[C@H](CCSC)NC(=O)[C@H](CO)NC(=O)CNC1=O [SEQ ID NO. 32] (H-CFALKMDRIGSMSGLGC-OH; disulfide 1-17; N-terminus and C-terminus assumed) was tested, and the “irritation upon nasal application” value ([1]; Formulation C = 30 μg/ml) was “There was no irritation upon nasal application”.
“SEQ ID NO: 37: cyclic peptide in which two amino acids have been substituted (CFGLKMDRIGSMTGLGC; disulfide 1-17)” was tested, and the “Post-treatment diagnostic skin impression” value ([2]; atopic dermatitis, Formulation A (1 μg/ml in purified water) applied to affected site) was “After 2 min, itches were eliminated” and the “Post-treatment diagnostic skin impression” value [2, 6] was “Immediately after application, itches were remitted,; also recorded: erythema, infiltration and scales were remarkably improved”.
With “SEQ ID NO: 17: cyclic peptide in which one amino acid has been substituted (CFGLKLDRIGSMSGAGC; disulfide 1-17)” the “Post-treatment diagnostic skin impression” value [2, 6] was “Immediately after application, itches were eliminated; also recorded: remitted”.
With “SEQ ID NO: 12: cyclic peptide in which one amino acid has been substituted (CFGLKLDRIGVMSGLGC; disulfide 1-17)” the “Post-treatment diagnostic skin impression” value [2, 3] was “improved”.
“SEQ ID NO: 38: cyclic peptide in which two amino acids have been substituted (CFGLKMDRIGSMSGIGC; disulfide 1-17)” was tested, and the “Post-treatment diagnostic skin impression” value [2, 6] was “After 1 min, itches were eliminated; also recorded: improved. After 3 min, skin was almost normalized and; also recorded: moisturized”, the “Post-treatment diagnostic skin impression” value ([2]; contact dermatitis, Formulation C (30 μg/ml)) was “After 1 min, itches was remitted; also recorded: After 3 min, swelling lessened, erythema was remitted” and the “Post-treatment diagnostic skin impression” value [2, 5] was “After 3 min, scales and infiltration were remitted”. The “Post-treatment diagnostic skin impression” value ([2]; rough skin, contact dermatitis, Formulation A (1 μg/ml), two-sided application (right vs left)) was “After 2 min, rought desiccation and erythema was remitted,; also recorded: skin texture was improved and moisturized”, the “Post-treatment diagnostic skin impression” value ([2]; rough skin, wrinkles, Formulation B (5 μg/ml)) was “shallowed, skin was full and given resilience” and the “Post-treatment diagnostic skin impression” value [2, 7] was “kept moistened”.
With “SEQ ID NO: 15: cyclic peptide in which one amino acid has been substituted (CFGLKLDRIGSMTGLGC; disulfide 1-17)” the “Post-treatment diagnostic skin impression” value ([2]; psoriasis vulgaris, Formulation B (5 μg/ml)) was “remarkably remitted, crusts were eliminated”, the “Post-treatment diagnostic skin impression” value ([2]; psoriasis, Formulation B (5 μg/ml)) was “After 3 min, scales were remitted. 3 min after further; also recorded: reduced” and the “Post-treatment diagnostic skin impression” value ([2]; rough skin, wrinkles, Formulation A (1 μg/ml)) was “kept moistened, facial erythema and scales were normalized”. The “Post-treatment diagnostic skin impression” value ([2]; seborrheic dermatitis, Formulation C (30 μg/ml)) was “Immediately after application, itches were remitted”.
In the case of “SEQ ID NO: 51: cyclic peptide in which three amino acids have been substituted (CFGLKMDRIGTMTGLGC; disulfide 1-17)”, the “Post-treatment diagnostic skin impression” value [2, 6] is reported as “Immediately after application, itches were eliminated; also recorded: scratch scars were remitted” and the “Post-treatment diagnostic skin impression” value ([2]; eczema, Formulation B (5 μg/ml)) is reported as “Immediately after application, itches were eliminated; also recorded: After 3 min, erythema and infiltration were remitted”.
With “SEQ ID NO: 35: cyclic peptide in which two amino acids have been substituted (CFALKLDRIGSMSGIGC; disulfide 1-17)” the “Post-treatment diagnostic skin impression” value [2, 4] was “Immediately after application, itches were eliminated,; also recorded: erythema ard scales were remarkably improved” and the “Post-treatment diagnostic skin impression” value [2, 6] was “After 1 min, itches were eliminated; also recorded: After 2 min, scales and erythema were remarkably improved; also recorded: After 3 min, skin was almost normalized and moisturized”.
For “SEQ ID NO: 32 (CFALKMDRIGSMSGLGC; disulfide 1-17)”, the “Post-treatment diagnostic skin impression” value [2, 5] was “remitted. After 10 min, erythema was further remitted” and the “Post-treatment diagnostic skin impression” value ([2]; rough skin, acne (comedo), Formulation C (30 μg/ml)) was “Immediately after application, itches were eliminated; also recorded: (comedo) was reduced”.
In the case of “SEQ ID NO: 49: cyclic peptide in which three amino acids have been substituted (CFALKMDRIGSMTGLGC; disulfide 1-17)”, the “Post-treatment diagnostic skin impression” value ([2]; psoriasis vulgaris, Formulation A (1 μg/ml)) is reported as “erythema were remitted”.
For “SEQ ID NO: 8: cyclic peptide in which one amino acid has been substituted (CFGLKMDRIGSMSGLGC; disulfide 1-17)”, the “Post-treatment diagnostic skin impression” value ([2]; atopic dermatitis, Formulation A (1 μg/ml), two-sided application (right vs left) in the same subject) was “After 1 min, erythema, infiltration, itches were remitted; also recorded: After 2 min, stining feeling was eliminated; also recorded: Immediately after application, itches were eliminated; also recorded: improved, skin texture was improved and moistened”, the “Post-treatment diagnostic skin impression” value [2, 4] was “Immediately after application, itches were eliminated,; also recorded: erythema and scales were remitted” and the “Post-treatment diagnostic skin impression” value [2, 6] was “the day next, erythema was remarkably improved; also recorded: After stopping 3 days of application, the effects lasted”. The “Post-treatment diagnostic skin impression” value [2, 7] was “Immediately after application itches were eliminated; also recorded: After 3 min, skin texture was improved finely, pore” and the “Post-treatment diagnostic skin impression” value ([2]; seborrheic dermatitis, acne (comedo), Formulation C (30 μg/ml)) was “After 1 min, itches were eliminated; also recorded: opening became inconspicuous, acne (comedo) was reduced”.

Source: US20240376153A1, “CNP CYCLIC PEPTIDE, AND MEDICINE, EXTERNAL PREPARATION AND COSMETIC EACH CONTAINING SAID CYCLIC PEPTIDE” (Igisu Co., Ltd., priority 2015, published 2024)
